Measured values reported in patent publication US7354711B2, “Methods for inhibiting immunostimulatory DNA associated responses” (University of Iowa Research Foundation, priority 1997, dated 2008).

Legend:
7TD1 cells = assay: Inhibition of 7TD1 cell growth; assay type: cell-based, mouse
Experimental: One particularly useful cell line for the assay of immunostimulatory DNA action is the mouse-mouse hybridoma plasma cell line 7TD1(ATTC #CRL 1851), which requires exoqenous IL-6 for growth, and has been used to characterize and assay IL-6 (Papadopolous et al., 1995. J. Clin. Lab. Anal. 9:234-7; Krakauer, 1993. J. Immunoassay 14:267-77).
The 7TD1 cells were grown in RPMI 1640 supplemented with 10% fetal bovine serum (heat inactivated at 65° C., 1 hour), 0.3 grams/Liter L-glutamine, 50 milligrams/Liter gentamycin, 0.05 mM 2-mercaptoethanol, and 10 units per milliliter murine IL-6 in a 37° C. humid atmosphere with 5% CO2. Viable 7TD1 cells were counted in a hemocytometer chamber in duplicate after dilution with 0.4% trypan blue.
The 7TD1 cells were incubated for five days and were washed twice with medium to remove IL-6, and resuspended at 2×10^4 per milliliter in medium. Cell counts were performed and the percent inhibition of growth was computed. The term “anti” refers to 40 nanograms/milliliter neutralizing antibody to IL-6.

WEHI 231 cells [1] = assay: CpG-ODN-induced IL-6 synthesis (ELISA); assay type: cell-based, mouse; conditions: 30 nM
Experimental: The assay of IL6 was generally carried out as follows. […] After 24 hours, the IL-6 content of the supernatant was assayed by enzyme-linked immunoassay using two monoclonal antibodies in a sandwich technique as described by the manufacturer, using standards supplied (PharMingen, San Diego Calif.).

[2] = test system: multi-drug resistance pump; assay: Potency with inhibition of the multi-drug resistance pump; assay type: cell-based
human mononuclear cells = assay: ODN 1760-induced [3H] thymidine incorporation in human mononuclear cells; assay type: cell-based; conditions: unfractionated human peripheral blood cells, four days
Experimental: [^3H] thymidine incorporation (18 hour pulse) was then measured. […] Thymidine incorporation for untreated samples was less than 0.05%. Samples from three donors were averaged, and error bars indicate 1 standard deviation.

WEHI 231 cells [3] = assay: Inhibition of CpG-ODN 1760 protection against α-sIgM-induced inhibition of [3H] thymidine uptake; assay type: cell-based, mouse; conditions: for Inhibition of the CpG-ODN effect (FIG. 1): at nanomolar concentrations, 10 μg/mL α-sIgM, 6 μg/mL ODN 1760; for Fold: activity expressed as a fraction of activity of chloroquine / Activity: -log10 of the concentration (M) required for half maximal inhibition of CpG-ODN effect on [3H] thymidine uptake in the presence of α-sIgM: Table 2, 4-aminoquinolines; for Activity: -log10 of the concentration (M) required for half maximal inhibition of CpG-ODN effect on [3H] thymidine uptake in the presence of α-sIgM / Activity,-log10 (concentration (M) for half maximal inhibition of CpG-ODN effect on [3H] thymidine uptake in the presence of α-sIgM): WEHI 231 cells; for vs. Chloroquine, fold / Activity,-log10 (concentration (M) for half maximal inhibition of CpG-ODN effect on [3H] thymidine uptake in the presence of α-sIgM): Table 3, 9-aminoacridines
Experimental: The assay of [^3H] Thymidine incorporation was carried out as follows. WEHI 231 cells (200 μL at 2×10^5/milliliter, in duplicate or triplicate) were incubated in a 96-well plate (Costar, Cambridge Mass.). Additions were made as indicated. After incubating for 16 hours, 0.5 μCi [methyl-^3H] thymidine (2 Ci/millimole, DuPont NEN, Boston Mass.) was added to each well, and the cells were incubated for another 4 hours. Cellular DNA was then captured onto glass fiber filters (Whatman 934AH) using a cell harvester (Brandel, Gaithersberg Md.). The filters were dried, placed into plastic scintillation vials with 10 milliliters of scintillation cocktail (EconoSafe, Research Products International, Mount Prospect Ill.), and counted in a liquid scintillation counter (Beckman LS-3133 T). The ^3H recovered on the filter was expressed as a fraction of the ^3H added.
Referring to experiments summarized in FIG. 1, WEHI 231 cells (ca. 2×10^5 per milliliter) were incubated for 16 hours at 37° C. with 10 μgrams/milliliter α-sIgM, 6 μgrams/milliliter ODN 1760, and the indicated concentration of the compound. After 16 hours, 0.5 μCi [^3H] thymidine was added. After 4 more hours incubation, the cellular DNA was harvested onto glass fiber filters. The dry filters were counted in a liquid scintillation counter.
Each experimental point was the mean of at least duplicate measurements.
Referring to the experiments summarized in FIG. 3, 10 μgrams/milliliter α-sIgM and the indicated concentrations of ODN 1760 and quinacrine were added simultaneously to WEHI 231 cells. Thymidine incorporation was estimated at 16 hours as described for Example 1.
Referring to the experiments summarized in FIG. 4, WEHI 231 cells were incubated with α-sIgM and ODN 1760. At times thereafter 0.1 μM quinacrine was added (data shown in the left three bars). Cells were incubated with 10 μgrams/milliliter (α-sIgM and ODN 1760 (6 μgrams/milliliter, phosphorothioate or a phosphodiester ODN with the same sequence as 1760 (PD ODN) (30 μM at time 0 hours and 8 hours; data represented in right six bars in FIG. 4). [^3H] thymidine incorporation was estimated at 16 hours.
The symbol — indicates no change. Me and Et indicate —CH3 and —CH2CH3 respectively. Aromatic substituents are in the para position except as indicated. The activity is —log10 of the concentration (M) required for half maximal inhibition of CpG-ODN effect on [^3H] thymidine uptake in the presence of α-sIgM.

[4] = test system: human peripheral blood mononuclear cells (PBMC); assay: ODN 1760-induced IL-6 production in human peripheral blood mononuclear cells; assay type: cell-based; conditions: 24 hours
Experimental: Referring to the experiments summarized in FIG. 9, human peripheral blood mononuclear cells (PBMC) from three donors were incubated with or without ODN 1760 and the indicated concentration of test compound. After 24 hours, the concentration of IL-6 was determined in the supernatant. The figure indicates the percentage of IL-6 in reference to ODN-treated cells. The IL-6 amounts for control sample per donor were as follows: donor 1, 203 picograms/milliliter; donor 2, 71.5 picograms/milliliter; donor 3, 465 picograms/milliliter. IL-6 measured from untreated cells was 0-21 picograms/milliliter. Results from the three donors were averaged, and error bars indicate 1 standard deviation.

[5] = 6 μg/mL ODN 1760 + 1 μg chloroquine (so in the source)
[6] = 6 μg/mL ODN 1760 + 3μ chloroquine (so in the source)

For `CCN(CC)CCCC(C)Nc1ccnc2cc(Cl)ccc12` (centres unmarked) [chloroquine], the “7TD1 cells/μL” value (7TD1 cells; [5]) was 7 cells/μL, the “% Growth Inhibition” value (7TD1 cells; [5]) was 98.1% and the “7TD1 cells/μL” value (7TD1 cells; [6]) was 10 cells/μL. For the same molecule, the “% Growth Inhibition” value (7TD1 cells; [6]) was 97.5%, the “7TD1 cells/μL” value (7TD1 cells; 10 μg/mL IL-6 + 1 μM compound) was 610 cells/μL and the “% Growth Inhibition” value (7TD1 cells; 10 μg/mL IL-6 + 1 μM compound) was 31.2%. The “% Growth Inhibition” value (7TD1 cells; 10 μg/mL IL-6 + 3 μM compound) was 38.3%, the “Effect on IL-6-induced growth” value (7TD1 cells; 7TD1 cells, IL-6) was “little effect” and the “Effect on growth stimulation by CpG-ODN” value (7TD1 cells; 7TD1 cells, ODN 1760) was “blocked”. For the same molecule, the “Reversal of ODN 1760 effect on IL-6 elaboration” value (WEHI 231 cells [1]) was “completely reversed”, the “Change of potency on inhibition of the multi-drug resistance pump” value [2] was “magnified” and the “Effect on ODN 1760-induced thymidine incorporation (FIG. 8)” value (human mononuclear cells) was “inhibited”. For the same molecule, the “Inhibition of the CpG-ODN effect (FIG. 1)” value (WEHI 231 cells [3]) was “completely inhibited” and the “Effect on ODN 1760-induced IL-6 production (FIG. 9)” value [4] was “inhibited”.

With `CCN(CC)CCCC(C)Nc1ccnc2cc(F)ccc12` (centres unmarked) [compound 13] the “Fold: activity expressed as a fraction of activity of chloroquine” value (shortened to “Fold: activity expressed as a fraction”) (WEHI 231 cells [3]) was 0.26 fold and the “Activity: -log10 of the concentration (M) required for half maximal inhibition of CpG-ODN effect on [3H] thymidine uptake in the presence of α-sIgM” value (WEHI 231 cells [3]) was 6.38.

`CCN(CC)CCC(CNc1c(C)cnc2cc(Cl)ccc12)c1ccc(Cl)c(Cl)c1` (centres unmarked) [compound 65] was tested, and the “Fold: activity expressed as a fraction” value (WEHI 231 cells [3]) was 0.58 fold and the “Activity: -log10 of the concentration (M) required for half maximal inhibition of CpG-ODN effect on [3H] thymidine uptake in the presence of α-sIgM” value (WEHI 231 cells [3]) was 6.72.

For `CCN(CC)CCCC(C)Nc1ccnc2ccc(-c3ccccc3)cc12` (centres unmarked) [compound 51], the “Fold: activity expressed as a fraction” value (WEHI 231 cells [3]) was 1.62 fold and the “Activity: -log10 of the concentration (M) required for half maximal inhibition of CpG-ODN effect on [3H] thymidine uptake in the presence of α-sIgM” value (WEHI 231 cells [3]) was 7.17.

For `CCN(CC)CCCC(C)Nc1c(C)cnc2cc(Cl)c(C)cc12` (centres unmarked) [compound 46], the “Fold: activity expressed as a fraction” value (WEHI 231 cells [3]) was 0.21 fold and the “Activity: -log10 of the concentration (M) required for half maximal inhibition of CpG-ODN effect on [3H] thymidine uptake in the presence of α-sIgM” value (WEHI 231 cells [3]) was 6.28.

In the case of `CCN(CC)CCCC(C)Nc1ccnc2cc(OC)ccc12` (centres unmarked) [compound 14], the “Fold: activity expressed as a fraction” value (WEHI 231 cells [3]) is reported as 0.17 fold and the “Activity: -log10 of the concentration (M) required for half maximal inhibition of CpG-ODN effect on [3H] thymidine uptake in the presence of α-sIgM” value (WEHI 231 cells [3]) is reported as 6.20.

For `CCN(CC)CCCC(C)Nc1ccnc2cc(Oc3ccccc3)ccc12` (centres unmarked) [compound 64], the “Fold: activity expressed as a fraction” value (WEHI 231 cells [3]) was 0.62 fold and the “Activity: -log10 of the concentration (M) required for half maximal inhibition of CpG-ODN effect on [3H] thymidine uptake in the presence of α-sIgM” value (WEHI 231 cells [3]) was 6.75.

`CCN(CC)CCCC(C)Nc1ccnc2cc(Cl)c(SCc3ccccc3)cc12` (centres unmarked) [compound 43] was tested, and the “Fold: activity expressed as a fraction” value (WEHI 231 cells [3]) was 4.57 fold and the “Activity: -log10 of the concentration (M) required for half maximal inhibition of CpG-ODN effect on [3H] thymidine uptake in the presence of α-sIgM” value (WEHI 231 cells [3]) was 7.62.

In the case of `CCN(CC)CCCC(C)Nc1ccnc2cc(Cl)ccc12` (centres unmarked) [compound 15], the “Activity: -log10 of the concentration (M) required for half maximal inhibition of CpG-ODN effect on [3H] thymidine uptake in the presence of α-sIgM” value (WEHI 231 cells [3]) is reported as 6.96.

With `CCN(CC)Cc1cc(Nc2ccnc3cc(Cl)ccc23)ccc1O` [amodiaquine, reference compound] the “Inhibition of the CpG-ODN effect (FIG. 1)” value (WEHI 231 cells [3]) was “completely inhibited”.

`CC[N+](C)(CC)CCCC(C)Nc1ccnc2cc(Cl)ccc12` (centres unmarked) [compound 8] was tested, and the “Fold: activity expressed as a fraction” value (WEHI 231 cells [3]) was 0.02 fold and the “Activity: -log10 of the concentration (M) required for half maximal inhibition of CpG-ODN effect on [3H] thymidine uptake in the presence of α-sIgM” value (WEHI 231 cells [3]) was 5.18.

With `CCN(CC)CCCC(C)Nc1ccnc2ccc(Oc3ccccc3)cc12` (centres unmarked) [compound 42] the “Fold: activity expressed as a fraction” value (WEHI 231 cells [3]) was 1.48 fold and the “Activity: -log10 of the concentration (M) required for half maximal inhibition of CpG-ODN effect on [3H] thymidine uptake in the presence of α-sIgM” value (WEHI 231 cells [3]) was 7.13.

`CCN(CC)CCCC(C)Nc1c(C)c(C)nc2ccccc12` (centres unmarked) [compound 39] was tested, and the “Fold: activity expressed as a fraction” value (WEHI 231 cells [3]) was 0.04 fold and the “Activity: -log10 of the concentration (M) required for half maximal inhibition of CpG-ODN effect on [3H] thymidine uptake in the presence of α-sIgM” value (WEHI 231 cells [3]) was 5.58.

In the case of `CCN(CC)CCCC(C)Nc1c(C)cnc2cccc(C)c12` (centres unmarked) [compound 40], the “Fold: activity expressed as a fraction” value (WEHI 231 cells [3]) is reported as 0.23 fold and the “Activity: -log10 of the concentration (M) required for half maximal inhibition of CpG-ODN effect on [3H] thymidine uptake in the presence of α-sIgM” value (WEHI 231 cells [3]) is reported as 6.32.

For `CCN(CC)CCCC(Nc1c2ccc(Cl)cc2nc2ccc(OC)cc12)c1cccs1` (centres unmarked) [compound 27], the “vs. Chloroquine, fold” value (WEHI 231 cells [3]) was 1.82 fold and the “Activity,-log10 (concentration (M) for half maximal inhibition of CpG-ODN effect on [3H] thymidine uptake in the presence of α-sIgM)” value (WEHI 231 cells [3]) was 7.22.

`C=C[C@H]1C[N@@]2CC[C@H]1C[C@@H]2[C@@H](O)c1ccnc2ccc(OC)cc12` [Quinidine, quinidine, reference compound] was tested, and the “Effect on CpG-ODN action (FIG. 1)” value (WEHI 231 cells [3]; at concentrations less than 10 μM) was “little effect”.

With `CCN(CC)CCCC(Nc1c2ccc(Cl)cc2nc2ccc(OC)cc12)c1ccc(OC)cc1` (centres unmarked) [compound 30] the “vs. Chloroquine, fold” value (WEHI 231 cells [3]) was 2.09 fold and the “Activity,-log10 (concentration (M) for half maximal inhibition of CpG-ODN effect on [3H] thymidine uptake in the presence of α-sIgM)” value (WEHI 231 cells [3]) was 7.28.

With `CCN(CC)CC(CNc1ccnc2cc(Cl)ccc12)c1ccc(OC)cc1` (centres unmarked) [compound 34] the “Fold: activity expressed as a fraction” value (WEHI 231 cells [3]) was 5.04 fold and the “Activity: -log10 of the concentration (M) required for half maximal inhibition of CpG-ODN effect on [3H] thymidine uptake in the presence of α-sIgM” value (WEHI 231 cells [3]) was 7.66.

For `CCN(CC)CCCC(C)Nc1ccnc2cc(Cl)ccc12` (centres unmarked) [compound 11], the “Activity: -log10 of the concentration (M) required for half maximal inhibition of CpG-ODN effect on [3H] thymidine uptake in the presence of α-sIgM” value (WEHI 231 cells [3]) was 6.56.

B1: IL-6: murine IL-6 purchased from PharMingen (protein, UniProt P08505 25-211, looked up)
Interleukin-6: FPTSQVRRGDFTEDTTPNRPVYTTSQVGGLITHVLWEIVEMRKELCNGNSDCMNNDDALAENNLKLPEIQRNDGCYQTGYNQEICLLKISSGLLEYHSYLEYMKNNLKDNKKDKARVLQRDTETLIHIFNQEVKDLHKIVLPTPISNALLTDKLESQKEWLRTKTIQFILKSLEEFLKVTLRSTRQT
In the case of B1, the “7TD1 cells/μL” value (7TD1 cells; 10 μg/mL IL-6 alone, five days) is reported as 887 cells/μL.
